For assay [1], the target named is T1, Histone-lysine N-methyltransferase NSD3 (Homo sapiens, UniProt Q9BZ95).
T1 sequence (Q9BZ95 whole entry): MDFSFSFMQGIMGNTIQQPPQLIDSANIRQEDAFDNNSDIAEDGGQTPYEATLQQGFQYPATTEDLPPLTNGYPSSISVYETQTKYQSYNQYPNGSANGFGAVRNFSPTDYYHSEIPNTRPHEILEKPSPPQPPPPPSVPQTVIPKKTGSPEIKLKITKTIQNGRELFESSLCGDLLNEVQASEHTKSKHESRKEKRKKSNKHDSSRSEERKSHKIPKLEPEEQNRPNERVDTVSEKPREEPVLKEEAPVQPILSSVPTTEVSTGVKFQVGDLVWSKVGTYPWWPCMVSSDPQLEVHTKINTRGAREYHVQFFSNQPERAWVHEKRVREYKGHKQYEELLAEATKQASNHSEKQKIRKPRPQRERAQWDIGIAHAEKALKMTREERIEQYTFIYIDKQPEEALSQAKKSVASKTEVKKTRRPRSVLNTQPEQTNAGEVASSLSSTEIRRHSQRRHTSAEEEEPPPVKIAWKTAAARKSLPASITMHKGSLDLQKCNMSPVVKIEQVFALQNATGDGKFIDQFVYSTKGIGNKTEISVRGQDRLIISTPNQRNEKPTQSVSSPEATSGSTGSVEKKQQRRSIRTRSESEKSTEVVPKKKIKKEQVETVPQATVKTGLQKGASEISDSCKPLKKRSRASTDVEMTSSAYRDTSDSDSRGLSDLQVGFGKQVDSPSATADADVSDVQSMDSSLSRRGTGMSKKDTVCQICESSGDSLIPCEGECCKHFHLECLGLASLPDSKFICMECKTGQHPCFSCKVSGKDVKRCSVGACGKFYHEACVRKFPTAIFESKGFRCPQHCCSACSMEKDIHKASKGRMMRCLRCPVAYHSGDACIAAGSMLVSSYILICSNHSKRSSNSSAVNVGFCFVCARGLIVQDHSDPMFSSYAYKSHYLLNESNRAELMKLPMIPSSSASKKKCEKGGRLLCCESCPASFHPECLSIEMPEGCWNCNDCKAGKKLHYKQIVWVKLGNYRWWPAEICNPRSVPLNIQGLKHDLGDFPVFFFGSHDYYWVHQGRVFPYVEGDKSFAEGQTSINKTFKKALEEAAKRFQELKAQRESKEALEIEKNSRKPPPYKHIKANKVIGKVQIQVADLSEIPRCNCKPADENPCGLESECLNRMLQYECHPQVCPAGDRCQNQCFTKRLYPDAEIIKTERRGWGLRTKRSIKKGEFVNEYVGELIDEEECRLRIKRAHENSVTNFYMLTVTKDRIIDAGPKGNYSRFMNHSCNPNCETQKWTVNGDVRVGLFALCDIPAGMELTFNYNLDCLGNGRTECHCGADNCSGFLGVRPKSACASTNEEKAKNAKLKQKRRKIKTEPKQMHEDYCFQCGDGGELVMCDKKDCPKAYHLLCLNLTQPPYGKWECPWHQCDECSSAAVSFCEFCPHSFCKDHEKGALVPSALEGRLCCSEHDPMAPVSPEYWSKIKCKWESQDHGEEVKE
The assay can be described thus: Inhibition of recombinant NSD3 (1021 to 1322 residues) (unknown origin) expressed in Escherichia coli Rossetta (DE3) using H3K36me1 as substrate incubated for 20 mins in presence of SAM by HTRF assay.

The target in assay [2] is T1, Histone-lysine N-methyltransferase NSD3. The assay can be described thus: Inhibition of recombinant NSD3 (1021 to 1322 residues) (unknown origin) expressed in Escherichia coli Rossetta (DE3).
Assay [3] addresses T2, Histone-lysine N-methyltransferase NSD2 (Homo sapiens, UniProt O96028).
T2 sequence (O96028 whole entry): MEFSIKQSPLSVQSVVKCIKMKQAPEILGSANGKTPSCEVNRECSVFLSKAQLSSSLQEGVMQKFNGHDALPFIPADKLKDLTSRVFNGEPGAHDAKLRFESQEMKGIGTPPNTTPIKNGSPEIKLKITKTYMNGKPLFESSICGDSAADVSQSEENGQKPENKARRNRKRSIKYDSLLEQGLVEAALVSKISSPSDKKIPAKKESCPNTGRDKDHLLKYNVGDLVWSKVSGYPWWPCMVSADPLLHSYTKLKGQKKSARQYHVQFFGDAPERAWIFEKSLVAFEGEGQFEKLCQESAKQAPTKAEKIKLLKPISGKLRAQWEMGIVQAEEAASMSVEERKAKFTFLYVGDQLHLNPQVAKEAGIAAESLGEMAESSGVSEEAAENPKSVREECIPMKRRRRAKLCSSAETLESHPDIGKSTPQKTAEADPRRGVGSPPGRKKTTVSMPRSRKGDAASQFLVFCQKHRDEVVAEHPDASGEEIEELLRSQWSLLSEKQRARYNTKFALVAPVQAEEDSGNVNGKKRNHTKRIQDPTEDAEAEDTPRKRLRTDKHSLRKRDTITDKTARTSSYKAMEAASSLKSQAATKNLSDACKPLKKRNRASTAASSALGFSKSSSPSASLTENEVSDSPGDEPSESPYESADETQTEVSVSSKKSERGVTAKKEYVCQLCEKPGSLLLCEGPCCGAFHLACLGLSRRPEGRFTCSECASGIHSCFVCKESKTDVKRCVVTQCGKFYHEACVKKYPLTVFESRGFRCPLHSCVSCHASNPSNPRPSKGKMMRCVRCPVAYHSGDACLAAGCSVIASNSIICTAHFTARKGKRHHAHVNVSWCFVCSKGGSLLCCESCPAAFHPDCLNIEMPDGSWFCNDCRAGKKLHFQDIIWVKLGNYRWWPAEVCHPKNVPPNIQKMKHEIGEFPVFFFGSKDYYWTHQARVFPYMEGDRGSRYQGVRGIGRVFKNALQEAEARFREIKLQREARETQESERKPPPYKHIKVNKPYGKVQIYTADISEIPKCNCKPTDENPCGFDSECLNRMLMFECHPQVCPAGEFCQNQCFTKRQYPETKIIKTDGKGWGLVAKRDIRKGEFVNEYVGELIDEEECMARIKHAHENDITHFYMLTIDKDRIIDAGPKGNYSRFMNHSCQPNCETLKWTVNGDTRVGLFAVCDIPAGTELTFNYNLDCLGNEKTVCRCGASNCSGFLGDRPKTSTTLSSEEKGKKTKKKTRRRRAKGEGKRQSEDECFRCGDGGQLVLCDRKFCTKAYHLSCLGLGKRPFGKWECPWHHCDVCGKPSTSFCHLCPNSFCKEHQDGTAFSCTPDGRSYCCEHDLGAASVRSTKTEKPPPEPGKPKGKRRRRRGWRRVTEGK
The assay can be described thus: Inhibition of recombinant NSD2 (942 to 1240 residues) (unknown origin) expressed in Escherichia coli Rossetta (DE3) using H3K36me1 as substrate incubated for 20 mins in presence of SAM by HTRF assay.

Assay [4] in a line: Inhibition of cell proliferation of rat RN 22 cells incubated for 6 days by Real-time Glow MT assay. Type of assay: functional, cell-based. Conditions: RN 22, 144 h; call rule not given here.

IC50 data for ten molecules are collected here from ChEMBL document CHEMBL5512626, “Discovery of potent small molecule inhibitors of histone lysine methyltransferase NSDs” (Eur J Med Chem, 2024).

SMILES strings stand for the structures.

Consider `N#Cc1ccccc1OCCn1cnc2c(N)ncnc21`, for which the IC50 entry in assay [1] was “Not Active”.

With `Nc1ncnc2c1ncn2CCOc1ccccc1Cl`, in assay [1], the concentration for half-maximal inhibition (IC50) result was “Not Active”. `CC(C)Oc1ccc(OCCn2c(S)nc3c(N)ncnc32)cc1`: the half-maximal inhibitory concentration (IC50) in assay [2] worked out at 13.8 µM. For the molecule `Nc1ccc(OCCn2cnc3c(N)ncnc32)cc1`, the IC50 result in assay [1] was “Not Active”.

`CSc1nc2c(N)ncnc2n1CCOc1ccc(C#N)cc1`: the half-maximal inhibitory concentration (IC50) entry in assay [3] and in assay [1] was “Not Active” each time. On to `CC(=O)Nc1ccc(OCCn2cnc3c(N)ncnc32)cc1`, for which the 50% inhibitory concentration (IC50) result in assay [1] is on record as “Not Active”. With `Cc1cc(CN)cc(C)c1-c1ncn(C)c1-c1ccnc2cc(F)ccc12`, the IC50 in assay [4] stood at 13 µM.

Turning to `Cc1ccc(OCCn2c(S)nc3c(N)ncnc32)cc1`, the concentration for half-maximal inhibition (IC50) in assay [2] was determined as 14.3 µM. `N#Cc1ccc(OCCn2c(Br)nc3c(N)ncnc32)cc1`: in assay [1], the IC50 entry is recorded as “Not Active”. For the molecule `CCOc1ccc(OCCn2c(S)nc3c(N)ncnc32)cc1`, the 50% inhibitory concentration (IC50) in assay [2] is 32.2 µM.
